A short description of data set [1]: Test B: Cytotoxicity Assay. The data set is classed as cell-based. The note with it: human, uninfected MT-4 cells, same protocol as Test A. Put shortly:
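Uninfected MT-4 cells (2000 per well) incubated with diluted compound at 37° C. for 5 days, following the antiviral protocol without HIV-IIIb.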

For a further data set, the system named is HIV-IIIb. In words: Test A: Antiviral Assay in MT4 Cells. The note with it: Human immunodeficiency virus 1, IIIB, MT4, 120 h; for inhibition at 0.2 µM: read-out: % inhibition at 0.2 μM; for inhibition at 2 µM: read-out: % inhibition at 2 μM. Type of data set: cell-based, HIV-1. As to the method: Test A: Antiviral Assay in MT4 Cells
MT-4 cells were next mixed with HIV-IIIb at an m.o.i of 0.003 for 1 hour, after which time 35 μL of virus/cell mixture (2000 cells) was immediately added to each well containing 40 μL of diluted compound. The plates were then incubated at 37° C. for 5 days. […] Cell lysis was carried out by incubating at room temperature for 10 min and then chemiluminescence was read.

For orientation: CC50 means the concentration that lowers cell viability or growth by half. A lower CC50 goes with harm at low concentration. A word on the inhibition: it is the relative decrease from the control value, in per cent. In data set [1], `Cn1ncc2c(Cl)ccc(-c3ccc(C#CC(C)(C)O)nc3[C@H](Cc3cc(F)cc(F)c3)NC(=O)Cn3nc(C(F)F)c4c3C(F)(F)[C@@H]3C[C@H]43)c21` [Compound 137C, N—((S)-1-(3-(4-chloro-1-methyl-1H-indazol-7-yl)-6-(3-hydroxy-3-methylbut-1-yn-1-yl)pyridin-2-yl)-2-(3,5-difluorophenyl)ethyl)-2-((3b-S,4aR)-3-(difluoromethyl)-5,5-difluoro-3b,4,4a,5-tetrahydro-1H-cyclopropa[3,4]cyclopenta[1,2-c]pyrazol-1-yl)acetamide] showed a half-maximal cytotoxic concentration (CC50) at 5 days of 7.88 µM. In the data set with HIV-IIIb, the inhibition at 0.2 µM amounted to 93% and the inhibition at 2 µM came to 100%.
The compound `CN(C)c1nn(CC(=O)N[C@@H](Cc2cc(F)cc(F)c2)c2nc(C#CC(C)(C)O)ccc2-c2ccc(Cl)c3c(NS(C)(=O)=O)nn(C)c23)c2c1[C@H]1C[C@H]1C2(F)F` [Compound 161, N—((S)-1-(3-(4-chloro-1-methyl-3-(methylsulfonamido)-1H-indazol-7-yl)-6-(3-hydroxy-3-methylbut-1-yn-1-yl)pyridin-2-yl)-2-(3,5-difluorophenyl)ethyl)-2-((3b-S,4aR)-3-(dimethylamino)-5,5-difluoro-3b,4,4a,5-tetrahydro-1H-cyclopropa[3,4]cyclopenta[1,2-c]pyrazol-1-yl)acetamide] had a CC50 at 5 days in data set [1] of 21.8 µM. Further, in the data set with HIV-IIIb, the inhibition at 0.2 µM stood at 84% and the inhibition at 2 µM came to 84%.
In data set [1], `C[C@@H](O)C#Cc1ccc(-c2ccc(Cl)c3c(NS(C)(=O)=O)nn(C)c23)c([C@H](Cc2cc(F)cc(F)c2)NC(=O)Cn2nc(C(F)F)c3c2C(F)(F)[C@@H]2C[C@H]32)n1` [Compound 143, N—((S)-1-(3-(4-chloro-1-methyl-3-(methylsulfonamido)-1H-indazol-7-yl)-6-((R)-3-hydroxybut-1-yn-1-yl)pyridin-2-yl)-2-(3,5-difluorophenyl)ethyl)-2-((3b-S,4aR)-3-(difluoromethyl)-5,5-difluoro-3b,4,4a,5-tetrahydro-1H-cyclopropa[3,4]cyclopenta[1,2-c]pyrazol-1-yl)acetamide] displayed a half-maximal cytotoxic concentration (CC50) at 5 days of 11.3 µM. In the data set on HIV-IIIb, the inhibition at 0.2 µM amounted to 98% and the inhibition at 2 µM came to 98%.
The compound `CNC(=O)c1nn(CC(=O)N[C@@H](Cc2cc(F)cc(F)c2)c2nc(C#CC(C)(C)O)ccc2-c2ccc(Cl)c3c(NS(C)(=O)=O)nn(C)c23)c2c1[C@H]1C[C@H]1C2(F)F` [Compound 165, (3bS,4aR)-1-(2-(((S)-1-(3-(4-chloro-1-methyl-3-(methylsulfonamido)-1H-indazol-7-yl)-6-(3-hydroxy-3-methylbut-1-yn-1-yl)pyridin-2-yl)-2-(3,5-difluorophenyl)ethyl)amino)-2-oxoethyl)-5,5-difluoro-N-methyl-3b,4,4a,5-tetrahydro-1H-cyclopropa[3,4]cyclopenta[1,2-c]pyrazole-3-carboxamide] showed a half-maximal cytotoxic concentration (CC50) at 5 days in data set [1] of 5.46 µM. Moreover, in the data set on HIV-IIIb, the inhibition at 0.2 µM stood at 72% and the inhibition at 2 µM is 72%.
With `Cn1nc(NS(C)(=O)=O)c2c(Cl)ccc(-c3ccc(C#CC(C)(C)O)nc3[C@H](Cc3cc(F)cc(F)c3)NC(=O)Cn3nc(C(F)F)c4c3C(F)(F)CCC4(F)F)c21` [Compound 82, (S)—N-(1-(3-(4 chloro-1-methyl-3-(methylsulfonamido)-1H-indazol-7-yl)-6-(3-hydroxy-3-methylbut-1-yn-1-yl)pyridin-2-yl)-2-(3,5-difluorophenyl)ethyl)-2-(3-(difluoromethyl)-4,4,7,7-tetrafluoro-4,5,6,7-tetrahydro-1H-indazol-1-yl)acetamide], the CC50 at 5 days in data set [1] was 9.7 µM. In the data set on HIV-IIIb, the inhibition at 0.2 µM is 99% and the inhibition at 2 µM was determined as 99%.
In turn, `Cc1ccc(-c2ccc(C#CC(C)(C)O)nc2[C@H](Cc2cc(F)cc(F)c2)NC(=O)Cn2nc(C(F)F)c3c2C(F)(F)[C@@H]2C[C@H]32)c2c1c(N)nn2C` [Compound 58G, N—((S)-1-(3-(3-amino-1,4-dimethyl-1H-indazol-7-yl)-6-(3-hydroxy-3-methylbut-1-yn-1-yl)pyridin-2-yl)-2-(3,5-difluorophenyl)ethyl)-2-((3b-S,4aR)-3-(difluoromethyl)-5,5-difluoro-3b,4,4a,5-tetrahydro-1H-cyclopropa[3,4]cyclopenta[1,2-c]pyrazol-1-yl)acetamide] showed a half-maximal cytotoxic concentration (CC50) at 5 days in data set [1] of 8.44 µM. Besides, in the data set with HIV-IIIb, the inhibition at 0.2 µM is 95% and the inhibition at 2 µM turned out to be 95%.
In data set [1], `Cn1nc(NCC#N)c2c(Cl)ccc(-c3ccc(C#CC(C)(C)O)nc3[C@H](Cc3cc(F)cc(F)c3)NC(=O)Cn3nc(C(F)F)c4c3C(F)(F)[C@@H]3C[C@H]43)c21` [Compound 93, N—((S)-1-(3-(4-chloro-3-((cyanomethyl)amino)-1-methyl-1H-indazol-7-yl)-6-(3-hydroxy-3-methylbut-1-yn-1-yl)pyridin-2-yl)-2-(3,5-difluorophenyl)ethyl)-2-((3b-S,4aR)-3-(difluoromethyl)-5,5-difluoro-3b,4,4a,5-tetrahydro-1H-cyclopropa[3,4]cyclopenta[1,2-c]pyrazol-1-yl)acetamide] came in with a cytotoxic concentration (CC50) at 5 days of 4.81 µM. Also, in the data set on HIV-IIIb, the inhibition at 0.2 µM was found to be 92% and the inhibition at 2 µM turned out to be 92%.
In data set [1], `COCC(=O)Nc1nn(C)c2c(-c3ccc(C#CC(C)(C)O)nc3[C@H](Cc3cc(F)cc(F)c3)NC(=O)Cn3nc(C(F)F)c4c3C(F)(F)[C@@H]3C[C@H]43)ccc(Cl)c12` [Compound 84, N—((S)-1-(3-(4-chloro-3-(2-methoxyacetamido)-1-methyl-1H-indazol-7-yl)-6-(3-hydroxy-3-methylbut-1-yn-1-yl)pyridin-2-yl)-2-(3,5-difluorophenyl)ethyl)-2-((3b-S,4aR)-3-(difluoromethyl)-5,5-difluoro-3b,4,4a,5-tetrahydro-1H-cyclopropa[3,4]cyclopenta[1,2-c]pyrazol-1-yl)acetamide] returned a 50% cytotoxic concentration (CC50) at 5 days of 8.73 µM. For the same compound, in the data set on HIV-IIIb, the inhibition at 0.2 µM worked out at 100% and the inhibition at 2 µM worked out at 100%.
In the case of `CC(C)(O)C#Cc1ccc(-c2cccc3[nH]ncc23)c([C@H](Cc2cc(F)cc(F)c2)NC(=O)Cn2nc(C(F)(F)F)c3c2C(F)(F)[C@@H]2C[C@H]32)n1` [Compound 72, 2-((3bS,4aR)-5,5-difluoro-3-(trifluoromethyl)-3b,4,4a,5-tetrahydro-1H-cyclopropa[3,4]cyclopenta[1,2-c]pyrazol-1-yl)-N—((S)-2-(3,5-difluorophenyl)-1-(6-(3-hydroxy-3-methylbut-1-yn-1-yl)-3-(1H-indazol-4-yl)pyridin-2-yl)ethyl)acetamide], the midpoint of cytotoxicity in data set [1], the CC50 at 5 days, lay at 5.87 µM. Moreover, in the data set on HIV-IIIb, the inhibition at 0.2 µM is 85% and the inhibition at 2 µM was determined as 87%.
Turning to `Cn1nc(NS(C)(=O)=O)c2cccc(-c3ccc(C#CC(C)(C)O)nc3[C@H](Cc3cc(F)cc(F)c3)NC(=O)Cn3nc(C(F)(F)F)c4c3C(F)(F)[C@@H]3C[C@H]43)c21` [Compound 33F, 2-((3bS,4aR)-5,5-difluoro-3-(trifluoromethyl)-3b,4,4a,5-tetrahydro-1H-cyclopropa[3,4]cyclopenta[1,2-c]pyrazol-1-yl)-N—((S)-2-(3,5-difluorophenyl)-1-(6-(3-hydroxy-3-methylbut-1-yn-1-yl)-3-(1-methyl-3-(methylsulfonamido)-1H-indazol-7-yl)pyridin-2-yl)ethyl)acetamide], the CC50 at 5 days in data set [1] turned out to be 12.9 µM. Further, in the data set with HIV-IIIb, the inhibition at 0.2 µM came to 93% and the inhibition at 2 µM came out at 93%.
As for `CNc1nnc2c(-c3ccc(C#CC(C)(C)O)nc3[C@H](Cc3cc(F)cc(F)c3)NC(=O)Cn3nc(C(F)F)c4c3C(F)(F)[C@@H]3C[C@H]43)cccn12` [Compound 76F, 2-((3bS,4aR)-3-(difluoromethyl)-5,5-difluoro-3b,4,4a,5-tetrahydro-1H-cyclopropa[3,4]cyclopenta[1,2-c]pyrazol-1-yl)-N—((S)-2-(3,5-difluorophenyl)-1-(6-(3-hydroxy-3-methylbut-1-yn-1-yl)-3-(3-(methylamino)-[1,2,4]triazolo[4,3-a]pyridin-8-yl)pyridin-2-yl)ethyl)acetamide], the 50% cytotoxic concentration (CC50) at 5 days in data set [1] came out at 22.6 µM. Further, in the data set with HIV-IIIb, the inhibition at 0.2 µM is 98% and the inhibition at 2 µM was determined as 98%.
`O=C(Cn1nc(C(F)F)c2c1C(F)(F)CCC2(F)F)N[C@@H](Cc1cc(F)cc(F)c1)c1nc(-c2c[nH]nn2)ccc1-c1cnc2[nH]ccc2c1` [Compound 16C, (S)—N-(1-(3-(1H-pyrrolo[2,3-b]pyridin-5-yl)-6-(1H-1,2,3-triazol-4-yl)pyridin-2-yl)-2-(3,5-difluorophenyl)ethyl)-2-(3-(difluoromethyl)-4,4,7,7-tetrafluoro-4,5,6,7-tetrahydro-1H-indazol-1-yl)acetamide] had a CC50 at 5 days in data set [1] of 3.67 µM. For the same compound, in the data set on HIV-IIIb, the inhibition at 0.2 µM was 23% and the inhibition at 2 µM was found to be 65%.
`Cn1nc(NS(C)(=O)=O)c2c(Cl)ccc(-c3ccc(C#CC(C)(C)O)nc3[C@H](Cc3cc(F)cc(F)c3)NC(=O)Cn3nc4c(c3Cl)CCCC4)c21` [Compound 125D, (S)—N-(1-(3-(4 chloro-1-methyl-3-(methylsulfonamido)-1H-indazol-7-yl)-6-(3-hydroxy-3-methylbut-1-yn-1-yl)pyridin-2-yl)-2-(3,5-difluorophenyl)ethyl)-2-(3-chloro-4,5,6,7-tetrahydro-2H-indazol-2-yl)acetamide] came in with a 50% cytotoxic concentration (CC50) at 5 days in data set [1] of 13.6 µM. Also, in the data set with HIV-IIIb, the inhibition at 0.2 µM came to 96% and the inhibition at 2 µM is 97%.
